Laboratory results taken from ChEMBL document CHEMBL1201862, “PubChem BioAssay data set” (2004).
Activity calls are given as the source filed them.

What was measured:
[1] = molecular target: Luciferin 4-monooxygenase (Photinus pyralis, UniProt P08659); test: inhibition of purified Photinus pyralis luciferase – biochemical, luminescence, dose response (AID 1891)
[2] = molecular target: T1, DNA dC->dU-editing enzyme APOBEC-3A (Homo sapiens, UniProt P31941); test: SAR analysis of small molecule inhibitors of APOBEC3A DNA Deaminase via a fluorescence-based single-stranded DNA deaminase assay - Set 2.; format: functional; conditions: read-out: IC50_Mean
T1 sequence (P31941 whole entry): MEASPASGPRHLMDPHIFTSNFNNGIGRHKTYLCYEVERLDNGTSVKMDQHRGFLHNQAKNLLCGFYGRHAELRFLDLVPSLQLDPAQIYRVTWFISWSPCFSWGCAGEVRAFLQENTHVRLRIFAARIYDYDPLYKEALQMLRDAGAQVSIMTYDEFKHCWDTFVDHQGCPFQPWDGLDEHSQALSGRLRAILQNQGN

[3] = molecular target: T2, DNA dC->dU-editing enzyme APOBEC-3G (Homo sapiens, UniProt Q9HC16); test: Dose Response confirmation of small molecule APOBEC3G DNA Deaminase Inhibitors via a fluorescence-based single-stranded DNA deaminase assay. [Related pubchem assays (depositor defined):AID493012, AID493028]; format: functional
T2 sequence (Q9HC16 whole entry): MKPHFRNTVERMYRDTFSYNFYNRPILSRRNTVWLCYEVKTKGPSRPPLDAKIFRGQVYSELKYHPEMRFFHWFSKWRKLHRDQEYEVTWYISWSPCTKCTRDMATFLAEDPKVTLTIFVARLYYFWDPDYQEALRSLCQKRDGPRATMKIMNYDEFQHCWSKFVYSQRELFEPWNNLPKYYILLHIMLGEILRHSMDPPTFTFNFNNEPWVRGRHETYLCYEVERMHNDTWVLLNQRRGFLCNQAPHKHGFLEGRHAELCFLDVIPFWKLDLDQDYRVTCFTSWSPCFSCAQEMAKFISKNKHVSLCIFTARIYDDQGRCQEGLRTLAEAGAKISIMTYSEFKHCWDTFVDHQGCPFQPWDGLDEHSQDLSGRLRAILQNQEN

[4] = molecular target: T2, DNA dC->dU-editing enzyme APOBEC-3G; test: SAR analysis of small molecule inhibitors of APOBEC3G DNA Deaminase via a fluorescence-based single-stranded DNA deaminase assay - Set 2.; format: functional; conditions: read-out: IC50_Mean
[5] = molecular target: T1, DNA dC->dU-editing enzyme APOBEC-3A; test: A3A deaminase inhibition for selectivity – biochemical, dose response (AID 504722); format: functional
[6] = molecular target: T1, DNA dC->dU-editing enzyme APOBEC-3A; test: SAR analysis of small molecule inhibitors of APOBEC3A DNA Deaminase via a fluorescence-based single-stranded DNA deaminase assay.; format: functional; conditions: read-out: IC50_Mean
[7] = molecular target: T2, DNA dC->dU-editing enzyme APOBEC-3G; test: inhibition of APOBEC3G ssDNA deamination – biochemical, fluorescence, single-stranded DNA substrate, SAR follow-up (AID 602136); format: functional; conditions: read-out: IC50_Mean
[8] = molecular target: T3, Mannose-6-phosphate isomerase (Homo sapiens, UniProt P34949); test: phosphomannose isomerase inhibition – biochemical, fluorescence intensity, confirmation (AID 1535)
T3 sequence (P34949 whole entry): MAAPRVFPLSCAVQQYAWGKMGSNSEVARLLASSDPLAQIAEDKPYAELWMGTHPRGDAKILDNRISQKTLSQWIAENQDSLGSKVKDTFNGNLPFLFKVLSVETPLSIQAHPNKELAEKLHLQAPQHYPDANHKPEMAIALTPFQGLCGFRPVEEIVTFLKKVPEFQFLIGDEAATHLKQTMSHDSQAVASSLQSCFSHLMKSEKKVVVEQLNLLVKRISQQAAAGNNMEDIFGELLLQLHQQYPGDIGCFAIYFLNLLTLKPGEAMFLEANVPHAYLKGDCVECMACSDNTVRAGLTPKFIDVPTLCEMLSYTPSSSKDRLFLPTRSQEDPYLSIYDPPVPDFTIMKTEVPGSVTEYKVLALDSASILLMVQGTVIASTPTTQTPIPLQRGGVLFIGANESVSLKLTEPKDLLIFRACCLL

[9] = molecular target: FAD-linked sulfhydryl oxidase ALR (Homo sapiens, UniProt P55789); test: ALR-catalysed DTT oxidation blockers – biochemical, H2O2 detection, luminescence, cherry-pick, dose response (AID 493248)
Leucine aminopeptidase = molecular target: T4, Leucine aminopeptidase (Plasmodium falciparum 3D7, UniProt Q8IL11); test: P. falciparum M17LAP inhibitors, primary screen, biochemical, fluorogenic H-Leu-NHMec substrate, 1536-well (AID 1619); format: functional
T4 sequence (Q8IL11 whole entry): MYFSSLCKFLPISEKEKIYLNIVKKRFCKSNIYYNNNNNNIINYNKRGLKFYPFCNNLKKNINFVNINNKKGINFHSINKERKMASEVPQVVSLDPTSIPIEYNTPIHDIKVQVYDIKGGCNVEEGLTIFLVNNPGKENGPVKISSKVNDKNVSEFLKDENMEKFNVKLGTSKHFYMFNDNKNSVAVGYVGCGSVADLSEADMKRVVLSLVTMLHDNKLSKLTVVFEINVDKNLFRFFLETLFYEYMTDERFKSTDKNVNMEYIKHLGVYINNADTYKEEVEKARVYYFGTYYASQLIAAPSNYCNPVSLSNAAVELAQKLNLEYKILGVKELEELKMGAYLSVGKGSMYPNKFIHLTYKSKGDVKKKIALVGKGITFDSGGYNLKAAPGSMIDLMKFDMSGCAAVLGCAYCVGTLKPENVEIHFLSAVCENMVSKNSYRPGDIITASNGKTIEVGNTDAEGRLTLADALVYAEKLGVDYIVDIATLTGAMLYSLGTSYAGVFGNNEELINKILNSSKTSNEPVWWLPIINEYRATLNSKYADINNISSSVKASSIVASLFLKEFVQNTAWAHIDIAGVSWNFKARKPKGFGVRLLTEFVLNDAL

Phosphomannomutase 2 = Phosphomannomutase 2 (Homo sapiens, UniProt O15305); test: Counter screen SAR assay for PMM2 inhibitors via a fluorescence intensity assay. [Related pubchem assays (depositor defined):AID1545, AID1574]
[10] = THP-1 cell cytotoxicity, dose response, cytotoxicity control for non-replicating M. tuberculosis project (AID 489025); format: functional
[11] = Trypanosoma cruzi growth suppression in host cells – NIH3T3 host cells, beta-gal luminescence, confirmation (AID 2044); format: functional, cell-based;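 also: intracellular parasites grown in NIH/3T3 mouse fibroblasts as host cells; luminescent beta-galactosidase reporter signal from transgenic T. cruzi replicating inside host cells; inhibitors lower the luminescence signal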
[12] = HepG2 cell cytotoxicity, cytotoxicity control, set 4 (AID 504910); format: functional; conditions: Mycobacterium tuberculosis
[13] = THP-1 cell cytotoxicity, cytotoxicity control, set 4 (AID 504911); format: functional; conditions: Mycobacterium tuberculosis
[14] = microbe, parasite or virus in culture; format: functional; conditions: Mycobacterium tuberculosis
cells = format: functional
[15] = A Cell Based Secondary Assay to Explore Cytotoxicity in THP-1 Cells of Compounds that Modulate Mycobacterium tuberculosis in Media Containing Glycerol versus Media without Glycerol (2).; format: functional
[16] = Vero cell cytotoxicity, dose response, cytotoxicity control for M. tuberculosis growth inhibitor project, Vero cells, purified and synthesized compounds, set 4 (AID 504854); format: functional; conditions: Mycobacterium tuberculosis
[17] = HepG2 cell cytotoxicity, dose response, cytotoxicity control, set 3 (AID 504853); format: functional; conditions: Mycobacterium tuberculosis
[18] = Vero cell cytotoxicity, cytotoxicity control for M. tuberculosis inhibitor project, purified and synthesized samples, set 3 (AID 504684); format: functional
[19] = Vero E6 cell cytotoxicity, dose response, cytotoxicity control for non-replicating M. tuberculosis project, secondary assay (AID 492998); format: functional, VeroE6; conditions: Vero C1008
[20] = A Cell Based Secondary Assay to Explore Cytotoxicity in HepG2 Cells of Compounds that Modulate Mycobacterium tuberculosis in Media Containing Glycerol versus Media without Glycerol (2).; format: functional
[21] = THP-1 cell cytotoxicity, dose response, cytotoxicity control, set 3 (AID 504852); format: functional; conditions: Mycobacterium tuberculosis
[22] = Vero cell cytotoxicity, dose response, cytotoxicity control for M. tuberculosis growth inhibitor project, Vero cells, purified and synthesized compounds, set 5 (AID 504909); format: functional; conditions: Mycobacterium tuberculosis
[23] = NIH3T3 cell viability loss – ATP luminescence, mouse fibroblasts, counter-screen, dose response (AID 2010); format: functional, cell-based;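 also: cells exposed to compound for about 90 hours before reading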
[24] = molecular target: Mitogen-activated protein kinase kinase kinase kinase 4 (Homo sapiens, UniProt O95819); format: functional
Sequence of Mitogen-activated protein kinase kinase kinase kinase 4 (O95819 whole entry, canonical isoform): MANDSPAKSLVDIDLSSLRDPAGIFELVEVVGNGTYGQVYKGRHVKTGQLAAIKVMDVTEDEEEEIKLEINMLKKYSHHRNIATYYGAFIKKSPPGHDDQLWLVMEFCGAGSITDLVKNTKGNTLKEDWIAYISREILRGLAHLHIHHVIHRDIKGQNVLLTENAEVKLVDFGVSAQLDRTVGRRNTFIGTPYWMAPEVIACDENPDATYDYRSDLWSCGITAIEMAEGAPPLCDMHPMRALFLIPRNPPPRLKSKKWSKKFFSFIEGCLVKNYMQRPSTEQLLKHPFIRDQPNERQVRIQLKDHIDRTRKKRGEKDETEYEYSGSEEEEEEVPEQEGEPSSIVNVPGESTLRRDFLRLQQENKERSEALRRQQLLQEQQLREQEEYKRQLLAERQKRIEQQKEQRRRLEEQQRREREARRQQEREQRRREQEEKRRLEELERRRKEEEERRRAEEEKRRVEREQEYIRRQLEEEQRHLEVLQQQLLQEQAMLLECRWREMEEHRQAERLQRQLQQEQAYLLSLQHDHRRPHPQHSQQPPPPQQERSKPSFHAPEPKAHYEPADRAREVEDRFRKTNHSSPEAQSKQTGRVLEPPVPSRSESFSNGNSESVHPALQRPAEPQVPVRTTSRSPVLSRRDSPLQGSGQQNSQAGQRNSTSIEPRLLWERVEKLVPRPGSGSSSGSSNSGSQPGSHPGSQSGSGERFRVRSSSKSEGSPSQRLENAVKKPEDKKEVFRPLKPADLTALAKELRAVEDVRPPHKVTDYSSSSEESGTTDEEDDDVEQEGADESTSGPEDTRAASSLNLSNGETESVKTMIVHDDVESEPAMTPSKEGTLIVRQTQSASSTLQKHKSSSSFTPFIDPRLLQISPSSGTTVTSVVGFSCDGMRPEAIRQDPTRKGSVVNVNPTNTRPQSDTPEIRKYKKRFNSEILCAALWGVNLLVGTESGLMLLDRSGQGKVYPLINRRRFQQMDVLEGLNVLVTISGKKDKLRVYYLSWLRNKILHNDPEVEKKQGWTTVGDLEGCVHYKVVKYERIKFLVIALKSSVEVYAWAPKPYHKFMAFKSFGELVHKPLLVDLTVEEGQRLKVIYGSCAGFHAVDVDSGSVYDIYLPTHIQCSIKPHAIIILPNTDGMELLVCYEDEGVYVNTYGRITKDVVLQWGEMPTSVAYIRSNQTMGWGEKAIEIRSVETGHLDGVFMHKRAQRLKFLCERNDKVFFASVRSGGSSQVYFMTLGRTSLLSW

[25] = molecular target: Casein kinase I isoform delta (Homo sapiens, UniProt P48730); format: functional;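 also: measured as one member (CSNK1D) of a kinome panel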
[26] = molecular target: Serine/threonine-protein kinase D3 (Homo sapiens, UniProt O94806); format: functional;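 also: determined within a kinase panel screen, with PRKCN as the panel member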
[27] = molecular target: T5, Neuropeptides B/W receptor type 1 (Homo sapiens, UniProt P48145); test: human NPBW1 receptor blockade, IC50 – cell-based, fluorescence, dose response, set 6, late-stage follow-up (AID 588583); format: functional
T5 sequence (P48145 whole entry): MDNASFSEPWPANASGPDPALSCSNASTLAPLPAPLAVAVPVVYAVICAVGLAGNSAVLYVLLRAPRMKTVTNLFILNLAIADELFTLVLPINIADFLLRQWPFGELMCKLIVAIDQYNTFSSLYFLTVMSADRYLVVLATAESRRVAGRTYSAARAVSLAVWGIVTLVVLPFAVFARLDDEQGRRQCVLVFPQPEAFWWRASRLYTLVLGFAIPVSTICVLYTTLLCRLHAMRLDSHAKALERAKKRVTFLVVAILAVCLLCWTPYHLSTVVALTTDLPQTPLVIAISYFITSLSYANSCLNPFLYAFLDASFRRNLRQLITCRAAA

[28] = molecular target: Melanin-concentrating hormone receptor 1 (Homo sapiens, UniProt Q99705); test: Late-stage fluorescence-based counterscreen for antagonists of the G-protein coupled receptor 7 (GPR7): cell-based dose response assay to identify antagonists of the melanin-concentrating hormone receptor 1 (MCHR1) Set 6.; format: functional
[29] = molecular target: Serine/threonine-protein kinase PLK3 (Homo sapiens, UniProt Q9H4B4); format: functional
[30] = molecular target: Vascular endothelial growth factor receptor 3 (Homo sapiens, UniProt P35916); format: functional;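 also: value from a kinome-wide profiling panel, with FLT4 as the panel member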
[31] = molecular target: Ribosomal protein S6 kinase beta-1 (Homo sapiens, UniProt P23443); format: functional;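 also: measured as one member of a kinome-wide profiling panel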
[32] = molecular target: Dual specificity tyrosine-phosphorylation-regulated kinase 1A (Homo sapiens, UniProt Q13627); format: functional;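 also: measured against DYRK1A as one member of a broad kinome profiling panel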
[33] = molecular target: Serine/threonine-protein kinase PLK1 (Homo sapiens, UniProt P53350); format: functional;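 also: PLK1 measured as one member of a kinome-wide profiling panel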
[34] = molecular target: Serine/threonine-protein kinase Nek2 (Homo sapiens, UniProt P51955); format: functional
[35] = molecular target: Tyrosine-protein kinase BTK (Homo sapiens, UniProt Q06187); format: functional
[36] = molecular target: Cyclin-dependent kinase 7 (Homo sapiens, UniProt P50613); format: functional;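 also: value comes from a kinome-wide kinase profiling panel in which CDK7 is one member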
Sequence of Cyclin-dependent kinase 7 (P50613 whole entry): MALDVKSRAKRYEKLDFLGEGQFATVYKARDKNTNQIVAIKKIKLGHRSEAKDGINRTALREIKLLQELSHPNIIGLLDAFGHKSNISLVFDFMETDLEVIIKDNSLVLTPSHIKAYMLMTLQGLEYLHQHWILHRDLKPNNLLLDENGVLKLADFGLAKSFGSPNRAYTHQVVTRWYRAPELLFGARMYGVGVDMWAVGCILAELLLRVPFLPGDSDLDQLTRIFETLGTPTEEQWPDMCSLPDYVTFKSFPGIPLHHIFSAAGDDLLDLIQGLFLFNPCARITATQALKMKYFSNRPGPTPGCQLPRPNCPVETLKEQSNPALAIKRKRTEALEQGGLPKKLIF

[37] = molecular target: Mitogen-activated protein kinase kinase kinase kinase 2 (Homo sapiens, UniProt Q12851); format: functional;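 also: measured as one member of a kinome-wide kinase panel, with MAP4K2 as the panel entry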
Sequence of Mitogen-activated protein kinase kinase kinase kinase 2 (Q12851 whole entry): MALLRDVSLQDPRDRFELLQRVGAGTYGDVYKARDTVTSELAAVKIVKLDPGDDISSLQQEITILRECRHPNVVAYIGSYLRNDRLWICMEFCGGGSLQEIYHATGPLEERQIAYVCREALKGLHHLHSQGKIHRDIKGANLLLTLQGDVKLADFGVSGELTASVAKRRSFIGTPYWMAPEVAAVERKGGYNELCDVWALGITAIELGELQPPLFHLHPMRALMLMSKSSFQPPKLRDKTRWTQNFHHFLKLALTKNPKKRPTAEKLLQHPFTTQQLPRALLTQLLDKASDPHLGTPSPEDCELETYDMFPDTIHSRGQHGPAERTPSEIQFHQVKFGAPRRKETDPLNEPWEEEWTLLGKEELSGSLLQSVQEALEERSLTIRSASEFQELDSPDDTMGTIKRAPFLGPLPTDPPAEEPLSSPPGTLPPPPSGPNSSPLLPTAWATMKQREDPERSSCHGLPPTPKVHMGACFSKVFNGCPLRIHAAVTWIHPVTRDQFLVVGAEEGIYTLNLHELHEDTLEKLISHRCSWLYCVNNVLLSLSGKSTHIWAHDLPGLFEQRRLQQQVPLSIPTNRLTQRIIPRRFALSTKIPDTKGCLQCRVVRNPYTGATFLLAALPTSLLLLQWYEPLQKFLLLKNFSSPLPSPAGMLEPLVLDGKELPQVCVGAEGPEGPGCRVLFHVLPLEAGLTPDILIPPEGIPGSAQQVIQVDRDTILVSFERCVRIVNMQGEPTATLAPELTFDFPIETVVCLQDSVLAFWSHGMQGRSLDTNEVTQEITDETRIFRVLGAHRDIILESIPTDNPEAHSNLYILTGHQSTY

[38] = molecular target: Tyrosine-protein kinase ABL1 (Homo sapiens, UniProt P00519); format: functional
[39] = molecular target: Platelet-derived growth factor receptor alpha (Homo sapiens, UniProt P16234); test: Navigating the Kinome. Panel member name: PDGFRA; format: functional
[40] = molecular target: Casein kinase I isoform alpha (Homo sapiens, UniProt P48729); format: functional
Sequence of Casein kinase I isoform alpha (P48729 whole entry, canonical isoform): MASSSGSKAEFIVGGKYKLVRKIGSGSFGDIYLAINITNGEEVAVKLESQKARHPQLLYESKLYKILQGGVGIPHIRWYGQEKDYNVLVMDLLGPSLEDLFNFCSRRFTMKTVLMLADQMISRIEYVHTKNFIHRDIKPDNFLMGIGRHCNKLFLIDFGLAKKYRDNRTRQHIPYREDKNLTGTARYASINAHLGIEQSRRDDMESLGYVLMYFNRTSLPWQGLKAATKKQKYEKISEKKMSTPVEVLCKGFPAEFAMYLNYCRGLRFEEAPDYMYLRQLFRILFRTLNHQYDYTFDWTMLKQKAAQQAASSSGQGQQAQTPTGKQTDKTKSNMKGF

Aurora kinase B = Aurora kinase B (Homo sapiens, UniProt Q96GD4); format: functional
[41] = molecular target: Dual specificity tyrosine-phosphorylation-regulated kinase 1B (Homo sapiens, UniProt Q9Y463); test: Navigating the Kinome. Panel member name: DYRK1B; format: functional
Sequence of Dual specificity tyrosine-phosphorylation-regulated kinase 1B (Q9Y463 whole entry): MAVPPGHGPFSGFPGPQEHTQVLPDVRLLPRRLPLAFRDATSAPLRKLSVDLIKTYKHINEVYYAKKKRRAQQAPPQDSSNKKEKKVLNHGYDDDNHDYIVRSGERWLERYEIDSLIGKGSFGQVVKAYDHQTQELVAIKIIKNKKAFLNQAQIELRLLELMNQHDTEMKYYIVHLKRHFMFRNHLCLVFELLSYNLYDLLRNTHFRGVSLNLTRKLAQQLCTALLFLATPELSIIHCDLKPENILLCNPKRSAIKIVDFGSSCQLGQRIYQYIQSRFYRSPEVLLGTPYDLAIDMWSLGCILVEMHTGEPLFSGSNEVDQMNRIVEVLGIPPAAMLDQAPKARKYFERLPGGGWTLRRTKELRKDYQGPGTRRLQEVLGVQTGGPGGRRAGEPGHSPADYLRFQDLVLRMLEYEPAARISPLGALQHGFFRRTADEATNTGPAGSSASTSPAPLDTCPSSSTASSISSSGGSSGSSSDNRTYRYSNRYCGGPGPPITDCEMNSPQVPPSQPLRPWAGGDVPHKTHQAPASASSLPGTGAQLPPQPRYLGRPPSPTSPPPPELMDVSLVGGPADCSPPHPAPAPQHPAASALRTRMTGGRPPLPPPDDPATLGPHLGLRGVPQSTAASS

[42] = molecular target: Dual specificity protein kinase CLK4 (Homo sapiens, UniProt Q9HAZ1); format: functional
Sequence of Dual specificity protein kinase CLK4 (Q9HAZ1 whole entry): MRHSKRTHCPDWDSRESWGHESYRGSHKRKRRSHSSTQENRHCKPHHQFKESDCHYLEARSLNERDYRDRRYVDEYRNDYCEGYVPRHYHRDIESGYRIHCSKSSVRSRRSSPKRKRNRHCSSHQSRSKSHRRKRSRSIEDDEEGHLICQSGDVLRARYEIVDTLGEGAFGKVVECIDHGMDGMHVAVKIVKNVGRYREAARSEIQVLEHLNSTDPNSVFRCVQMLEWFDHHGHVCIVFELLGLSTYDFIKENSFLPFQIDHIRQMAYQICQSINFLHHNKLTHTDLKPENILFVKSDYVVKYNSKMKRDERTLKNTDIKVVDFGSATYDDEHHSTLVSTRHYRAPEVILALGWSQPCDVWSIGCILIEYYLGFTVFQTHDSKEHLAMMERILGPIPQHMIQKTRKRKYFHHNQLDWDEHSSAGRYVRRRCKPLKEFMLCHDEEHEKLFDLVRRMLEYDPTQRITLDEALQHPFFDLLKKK

[43] = molecular target: Serine/threonine-protein kinase PAK 4 (Homo sapiens, UniProt O96013); format: functional;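 also: value obtained within a kinome profiling panel in which PAK4 was one of the panel members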
[44] = molecular target: Inhibitor of nuclear factor kappa-B kinase subunit epsilon (Homo sapiens, UniProt Q14164); test: Navigating the Kinome. Panel member name: IKBKE; format: functional
[45] = molecular target: Mitogen-activated protein kinase 8 (Homo sapiens, UniProt P45983); format: functional;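 also: value comes from one member of a kinome-wide kinase profiling panel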
[46] = molecular target: Tyrosine-protein kinase receptor TYRO3 (Homo sapiens, UniProt Q06418); format: functional;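 also: TYRO3 value obtained as one member of a kinome-wide profiling panel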
Activin receptor type-1 = Activin receptor type-1 (Homo sapiens, UniProt Q04771); test: Navigating the Kinome. Panel member name: ACVR1; format: functional
Focal adhesion kinase 1 = Focal adhesion kinase 1 (Homo sapiens, UniProt Q05397); format: functional;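 also: measured as one member of a kinome panel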
[47] = molecular target: Macrophage colony-stimulating factor 1 receptor (Homo sapiens, UniProt P07333); format: functional;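 also: value comes from the Navigating the Kinome screening panel, CSF1R member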

Sequence of Luciferin 4-monooxygenase (P08659 whole entry): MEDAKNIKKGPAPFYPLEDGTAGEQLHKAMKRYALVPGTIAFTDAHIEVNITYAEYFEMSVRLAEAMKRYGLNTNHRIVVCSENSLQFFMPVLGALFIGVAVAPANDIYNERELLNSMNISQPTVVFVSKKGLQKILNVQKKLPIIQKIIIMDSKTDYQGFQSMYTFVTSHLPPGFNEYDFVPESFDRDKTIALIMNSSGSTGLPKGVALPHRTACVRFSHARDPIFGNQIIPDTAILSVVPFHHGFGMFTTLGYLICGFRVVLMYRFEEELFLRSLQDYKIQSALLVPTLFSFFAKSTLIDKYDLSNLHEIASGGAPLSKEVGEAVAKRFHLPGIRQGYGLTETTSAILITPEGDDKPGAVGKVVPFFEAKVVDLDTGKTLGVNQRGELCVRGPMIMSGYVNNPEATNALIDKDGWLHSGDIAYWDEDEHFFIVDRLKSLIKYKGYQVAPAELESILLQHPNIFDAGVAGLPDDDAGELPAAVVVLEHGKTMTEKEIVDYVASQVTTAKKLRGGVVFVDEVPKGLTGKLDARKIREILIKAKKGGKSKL

## COc1ccc(-c2nnc(S)[nH]2)cc1
[1]
  EC50: > 112 µM (not active)
[2]
  IC50: > 99 µM (inactive)
[3]
  IC50: 1.95 µM (active)
[4]
  IC50: 1.22 µM (active)
[5]
  IC50: > 100 µM (inactive)
[6]
  IC50: > 99 µM (inactive)
[7]
  IC50: 1.19 µM (active)
[8]
  IC50: 50.1 µM (active)
[9]
  AC50: 0.008 µM (active)
Leucine aminopeptidase
  IC50: 39.5 µM (active)
Phosphomannomutase 2
  IC50: > 100 µM (inactive)

## Cc1[nH]c2ccccc2c1C(=O)COC(=O)c1ccc([N+](=O)[O-])s1
[10]
  CC50: 29.6 µM (active)
[11]
  EC50: 1.75 µM (active)
[12]
  CC50: 30.3 µM (active)
[13]
  CC50: 32.3 µM (active)
[14]
  CC50: 32.2 µM (active)
cells
  IC50: 3.59 µM (active)
[15]
  CC50: 25.1 µM (active)
[16]
  CC50: 29 µM (active)
[17]
  CC50: 21 µM (active)
[18]
  CC50: 25.7 µM (active)
[19]
  CC50: > 20 µM (active)
[20]
  CC50: 20.7 µM (active)
[21]
  CC50: 16.3 µM (active)
[22]
  CC50: > 63.9 µM (active)
[23]
  EC50: > 30 µM (not active)

## CC(C)(O)c1nnc2ccc(-c3c(-c4ccc(F)cc4F)nc4occn34)nn12
[24]
  Ki: 3.16 µM (active)
[25]
  Ki: 2.51 µM (active)
[26]
  Ki: 5.01 µM (active)

## CCc1cnn(Cc2cccc3ccccc23)c(=O)c1C(C#N)c1ccccc1 (centres undefined)
[27]
  IC50: 15.2 µM (inactive)
[28]
  IC50: 15.2 µM (inactive)

## CCn1c(=C(C#N)C(=O)O)sc(=CNc2ccccc2)c1=O
[29]
  Ki: 5.01 µM (active)
[30]
  Ki: 1.58 µM (active)
[31]
  Ki: 6.31 µM (active)
[32]
  Ki: 1.58 µM (active)
[33]
  Ki: 1.58 µM (active)
[34]
  Ki: 5.01 µM (active)

## Clc1cc2nnc(-c3ccccc3)n2cn1
[35]
  Ki: 50.1 µM (active)
[36]
  Ki: 20 µM (active)
[37]
  Ki: 12.6 µM (active)
[38]
  Ki: 63.1 µM (active)
[39]
  Ki: 15.8 µM (active)
[40]
  Ki: 39.8 µM (active)
Aurora kinase B
  Ki: 25.1 µM (active)
[41]
  Ki: 79.4 µM (active)
[42]
  Ki: 63.1 µM (active)

## Nc1nc2ncc(-c3ccccc3)cn2n1
[43]
  Ki: 25.1 µM (active)
[24]
  Ki: 50.1 µM (active)
[37]
  Ki: 79.4 µM (active)
[44]
  Ki: 63.1 µM (active)
[32]
  Ki: 50.1 µM (active)
[45]
  Ki: 50.1 µM (active)
[46]
  Ki: 50.1 µM (active)
[40]
  Ki: 25.1 µM (active)
[41]
  Ki: 31.6 µM (active)
[42]
  Ki: 15.8 µM (active)
Activin receptor type-1
  Ki: 39.8 µM (active)
Focal adhesion kinase 1
  Ki: 100 µM (active)
[47]
  Ki: 100 µM (active)
